From patent US20080139558A1, “QUINOLONES USEFUL AS INDUCIBLE NITRIC OXIDE SYNTHASE INHIBITORS” (KALYPSYS, INC., priority 2006, published 2008)

Each molecule was assayed against T1, human iNOS (Homo sapiens, UniProt P35228) (assay: DAN assay of nitric oxide production (hiNOS)). Details: enzyme expressed in HEK293 cells transiently transfected with human iNOS.
T1 construct: expressed in transfected cells; host or cells: HEK293
Assay type: cell-based
Text: The source of nitric oxide synthase (NOS) enzyme can be generated in several ways including induction of endogenous iNOS using cytokines and/or lipopolysaccharide (LPS) in various cell types known in the art. Alternatively, the gene encoding the enzyme can be cloned and the enzyme can be generated in cells via heterologous expression from a transient or stable expression plasmid with suitable features for protein expression as are known in the art. Enzymatic activity (nitric oxide production) is calcium independent for iNOS, while the constitutive NOS isoforms, nNOS and eNOS, become active with the addition of various cofactors added to cellular media or extract as are well known in the art. Enzymes specified in Table 1 were expressed in HEK293 cells transiently transfected with human iNOS.
A major metabolic pathway for nitric oxide is to nitrate and nitrite, which are stable metabolites within tissue culture, tissue, plasma, and urine (S Moncada, A Higgs, N Eng J Med 329, 2002 (1993)).
The level of nitrate or nitrite in the specimen can be quantified by any method known in the art which provides adequate sensitivity and reproducibility. A variety of protocols have also been described for detecting and quantifying nitrite and nitrate levels in biological fluids by ion chromatography (e.g., A Everett et al., J. Chromatogr. 706, 437 (1995); J M Monaghan et al., J. Chromatogr. 770, 143 (1997)), high-performance liquid chromatography (e.g., M Kelm et al., Cardiovasc. Res. 41, 765 (1999)), and capillary electrophoresis (MA Friedberg et al., J. Chromatogr. 781, 491 (1997)). For example, 2,3-diaminonaphthalene reacts with the nitrosonium cation that forms spontaneously from NO to form the fluorescent product 1H-naphthotriazole. Using 2,3-diaminonaphthalene (“DAN”), researchers have developed a rapid, quantitative fluorometric assay that can detect from 10 nM to 10 μM nitrite and is compatible with a multi-well microplate format. […] DAN reacts with nitrite ion and gives fluorescent naphthotriazole (MC Carré et al., Analusis 27, 835-838 (1999)). Table 1 provides the test results of various compounds of the subject invention using the DAN assay.
A specimen can be processed prior to determination of nitrate or nitrite as required by the quantification method, or in order to improve the results, or for the convenience of the investigator. For example, processing can involve centrifuging, filtering, or homogenizing the sample. If the sample is whole blood, the blood can be centrifuged to remove cells and the nitrate or nitrite assay performed on the plasma or serum fraction. If the sample is tissue, the tissue can be dispersed or homogenized by any method known in the art prior to determination of nitrate or nitrite. It may be preferable to remove cells and other debris by centrifugation or another method and to determine the nitrate or nitrite level using only the fluid portion of the sample, or the extracellular fluid fraction of the sample. The sample can also be preserved for later determination, for example by freezing of urine or plasma samples. When appropriate, additives may be introduced into the specimen to preserve or improve its characteristics for use in the nitrate or nitrite assay.
The “level” of nitrate, nitrite, or other NO-related product usually refers to the concentration (in moles per liter, micromoles per liter, or other suitable units) of nitrate or nitrite in the specimen, or in the fluid portion of the specimen. However, other units of measure can also be used to express the level of nitrate or nitrite. For example, an absolute amount (in micrograms, milligrams, nanomoles, moles, or other suitable units) can be used, particularly if the amount refers back to a constant amount (e.g., grams, kilograms, milliliters, liters, or other suitable units) of the specimens under consideration. A number of commercially available kits can be used. […]

T1 sequence (P35228 whole entry): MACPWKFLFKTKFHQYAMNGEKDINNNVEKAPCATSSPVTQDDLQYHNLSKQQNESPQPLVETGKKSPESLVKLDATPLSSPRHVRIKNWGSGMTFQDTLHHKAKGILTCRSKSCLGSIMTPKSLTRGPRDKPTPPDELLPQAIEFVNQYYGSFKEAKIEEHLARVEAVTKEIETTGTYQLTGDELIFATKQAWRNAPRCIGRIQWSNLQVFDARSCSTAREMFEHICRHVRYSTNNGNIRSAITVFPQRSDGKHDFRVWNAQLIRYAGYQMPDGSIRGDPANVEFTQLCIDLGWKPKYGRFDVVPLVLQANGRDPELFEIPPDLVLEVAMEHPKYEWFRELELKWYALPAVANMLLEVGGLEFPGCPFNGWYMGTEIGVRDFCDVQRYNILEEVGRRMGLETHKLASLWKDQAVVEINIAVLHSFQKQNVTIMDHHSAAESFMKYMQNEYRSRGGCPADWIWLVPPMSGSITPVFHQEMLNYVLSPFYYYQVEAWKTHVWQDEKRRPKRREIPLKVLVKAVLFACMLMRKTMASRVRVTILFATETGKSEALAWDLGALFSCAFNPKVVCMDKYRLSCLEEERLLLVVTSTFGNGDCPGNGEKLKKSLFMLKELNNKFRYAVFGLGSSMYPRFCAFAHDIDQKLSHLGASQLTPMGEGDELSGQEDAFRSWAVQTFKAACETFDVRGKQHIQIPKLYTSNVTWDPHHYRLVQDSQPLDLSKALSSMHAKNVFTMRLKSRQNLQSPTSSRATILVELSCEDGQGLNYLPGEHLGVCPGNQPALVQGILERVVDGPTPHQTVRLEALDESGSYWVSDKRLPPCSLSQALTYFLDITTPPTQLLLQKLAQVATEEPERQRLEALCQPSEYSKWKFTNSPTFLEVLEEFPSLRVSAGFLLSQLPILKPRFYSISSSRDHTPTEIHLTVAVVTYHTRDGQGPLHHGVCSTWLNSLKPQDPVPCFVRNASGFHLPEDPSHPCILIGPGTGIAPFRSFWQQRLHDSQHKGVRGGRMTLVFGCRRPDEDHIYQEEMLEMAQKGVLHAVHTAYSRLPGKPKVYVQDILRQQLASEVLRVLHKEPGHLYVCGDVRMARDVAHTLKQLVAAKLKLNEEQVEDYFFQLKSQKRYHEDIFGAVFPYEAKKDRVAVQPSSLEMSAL

| SMILES | EC50 [µM] |
| --- | --- |
| CC(C)C(=O)N(Cc1cc(=O)[nH]c2ccccc12)c1ccccc1 [Example 5, N-((2-Oxo-1,2-dihydroquinolin-4-yl)methyl)-N-phenylisobutyramide] | > 5 |
| CC(C)c1nc2cc(F)c(F)cc2n1Cc1cc(=O)[nH]c2c(F)c(F)ccc12 [Example 229, 7,8-Difluoro-4-((5,6-difluoro-2-isopropyl-1H-benzo[d]imidazol-1-yl)methyl)quinolin-2(1H)-one] | > 5 |
| Cc1cccc(C)c1-c1nc2ccccc2n1Cc1cc(=O)[nH]c2c(F)c(F)ccc12 [Example 246, 4-((2-(2,6-Dimethylphenyl)-1H-benzo[d]imidazol-1-yl)methyl)-7,8-difluoroquinolin-2(1H)-one] | > 5 |
| Cc1ncsc1C(=O)N(Cc1cc(=O)[nH]c2c(F)c(F)ccc12)c1ccccc1 [Example 175, N-Phenyl-N-((7,8-fluoro-2-oxo-1,2-dihydroquinolin-4-yl)methyl)-4-methylthiazole-5-carboxamide] | ≤ 5 |
| Cc1cccc2c(CN(C(=O)c3ccco3)c3ccccc3)cc(=O)[nH]c12 [Example 16, N-((8-Methyl-2-oxo-1,2-dihydroquinolin-4-yl)methyl)-N-phenylfuran-2-carboxamide] | ≤ 5 |
| O=C(c1nnc[nH]1)N(Cc1cc(=O)[nH]c2c(F)c(F)ccc12)c1cccc(Cl)c1 [Example 168, N-(3-Chlorophenyl)-N-[(7,8-difluoro-2-oxo-1,2-dihydroquinolin-4-yl)methyl]-4H-1,2,4-triazole-3-carboxamide] | ≤ 5 |
| Cc1cccnc1C(=O)N(Cc1cc(=O)[nH]c2ccccc12)c1ccccc1 [Example 38, 3-Methyl-N-((2-oxo-1,2-dihydroquinolin-4-yl)methyl)-N-phenylpicolinamide] | > 5 |
| Cc1ncsc1C(=O)N(Cc1cc(=O)[nH]c2cc(F)ccc12)c1cccc(Cl)c1 [Example 51, N-(3-Chlorophenyl)-N-((7-fluoro-2-oxo-1,2-dihydroquinolin-4-yl)methyl)-4-methylthiazole-5-carboxamide] | > 5 |
| Cc1ncsc1C(=O)N(c1cccc(Cl)c1)C(F)c1cc(=O)[nH]c2c(F)cccc12 (stereo not drawn) [Example 253, N-(3-Chlorophenyl)-N-(fluoro(8-fluoro-2-oxo-1,2-dihydroquinolin-4-yl)methyl)-4-methylthiazole-5-carboxamide] | ≤ 5 |
| O=c1cc(Cn2c(-c3cccc(F)c3)nc3ccccc32)c2ccc(F)c(F)c2[nH]1 [Example 196, 7,8-Difluoro-4-((2-(3-fluorophenyl)-1H-benzo[d]imidazol-1-yl)methyl)quinolin-2(1H)-one] | ≤ 5 |
| Cc1noc(C)c1-c1nc2ccccc2n1Cc1cc(=O)[nH]c2c(F)c(F)ccc12 [Example 232, 4-((2-(3,5-Dimethylisoxazol-4-yl)-1H-benzo[d]imidazol-1-yl)methyl)-7,8-difluoroquinolin-2(1H)-one] | ≤ 5 |
| Cc1ncsc1C(=O)N(Cc1cc(=O)[nH]c2c(F)cccc12)c1cccc(Cl)c1 [Example 43, N-(3-Chlorophenyl)-N-((8-fluoro-2-oxo-1,2-dihydroquinolin-4-yl)methyl)-4-methylthiazole-5-carboxamide] | > 5 |
| O=c1cc(Cn2c(C3CCC3)nc3ccccc32)c2ccc(F)c(F)c2[nH]1 [Example 207, 4-((2-Cyclobutyl-1H-benzo[d]imidazol-1-yl)methyl)-7,8-difluoroquinolin-2(1H)-one] | ≤ 5 |
| Cc1ncsc1C(=O)N(Cc1cc(=O)[nH]c2c(F)ccc(F)c12)c1cccc(Cl)c1 [Example 52, N-(3-Chlorophenyl)-N-((5,8-difluoro-2-oxo-1,2-dihydroquinolin-4-yl)methyl)-4-methylthiazole-5-carboxamide] | > 5 |
| O=C(c1cscn1)N(Cc1cc(=O)[nH]c2ccccc12)c1ccccc1 [Example 28, N-((2-Oxo-1,2-dihydroquinolin-4-yl)methyl)-N-phenylthiazole-4-carboxamide] | > 5 |
